From patent US20230078811A1, “USE OF DISTILLABLE VOLATILE SALT FOR THE PRETREATMENT OF BIOMASS” (The Regents of the University of California, priority 2020, published 2023) come the findings set out here.

The data set is described as follows: Distillation efficiency: pretreating solvent left in the solids after pretreatment and distillation. The data set is classed as physicochemical. Conditions: pretreat 100° C. 1 hour; distill 100° C. 1 hour, full vacuum; 40% solid loading; FIG. 4. As for the experimental part: Distillation efficiency is measured using the following procedure: pretreat at 100° C. for 1 hour; distill at 100° C. for 1 hours in full vacuum, 40% solid loading (SL) with ethanolamine, enzyme saccharification (5%, 10%, 20% SL), and 10 mg/g biomass of CTEC/HTEC 9/1 cellulase. Distillation efficiency can be measured by determining the concentration of pretreating solvent in the solids after pretreatment.

Turning to `NCCO` [ethanolamine], the “removal of the solvent by distillation” value is given as “about 98.7%”.
